Data published in US10092537B2, “Use for PAI-1 inhibitor” (RENASCIENCE CO., LTD., priority 2013, dated 2018).

Key:
[1] = tested on: CML cells (32Dp210-GFP cells); assay: Chronic myelogenous leukemia model mice, imatinib and compound c (Experimental Example 12); assay type: in vivo
Experimental: Chronic myelogenous leukemia model mice prepared in the same manner as in Experimental Example 11 were divided into the following 3 groups (each group: n=10), and the groups were administered respective test drugs in accordance with the protocol shown in FIG. 15A.
Group 1: placebo group (physiological saline was administered via gavage)
Group 2: imatinib group (imatinib [150 mg/kg/day] was administered via gavage)
Group 3: imatinib+compound c group (imatinib [150 mg/kg/day] and compound c [10 mg/kg/day] were administered via gavage)
8 days (day 8) after the day on which CML cells (32Dp210-GFP cells) were intravenously inoculated (day 0), administration of the test drugs to the groups was started. The placebo group and the imatinib group were administered the respective test drugs once a day from day 8 to day 14 (7 doses in total). The imatinib+compound c group was administered imatinib once a day from day 8 to day 14 (7 doses in total), and also administered compound c once a day from day 8 to day 14 (7 doses in total).

[2] = tested on: hematopoietic stem cells; assay: Frequency and absolute number of hematopoietic stem cells after bone-marrow transplantation (Experimental Example 8 (1)); assay type: in vivo, mice; details: 1 and 3 weeks after bone-marrow transplantation
Experimental: In accordance with the procedure of Experimental Example 7 (1), bone marrow was transplanted, and tPA or compound a was administered in the same manner as in Experimental Example 7. Physiological saline was administered to a control group. 1 and 3 weeks after bone-marrow transplantation, 12 mice of each group were measured for the number of bone-marrow mononucleic cells (BM MNC), the frequency and absolute number of Lin-SLAM cells, and the frequency and absolute number of LSK-CD34 negative cells.

[3] = tested on: hematopoietic stem cells; assay: Hematopoietic recovery after total-body radiation (9Gy) and bone-marrow transplantation (Experimental Example 4); assay type: in vivo, C57BI6/J mice
Experimental: Specifically, C57BI6/J mice (recipient), which were wild-type inbred strain mice, were treated with total-body radiation (9Gy), and four hours later, bone-marrow cells were transplanted into the mice. Concurrently with the transplantation, compound a was administered to the mice as a test compound via oral gavage (dosage 100 mg/kg), and compound a was daily administered orally for 5 consecutive days (administered group).
The survival rate of the mice after bone-marrow transplantation was tracked over time (each group: n=15).
Bone-marrow cells collected from the mice (administered group and control group) 7 days after bone-marrow transplantation were measured for the presence of Lin-SLAM cells with a flow cytometric analyzer (see FIG. 5A). Each test was independently conducted (each group: n=6).
The proportion (%) of Lin-SLAM cells in the whole bone marrow, the total number of Lin-SLAM cells in the bone marrow, the proportion (%) of LSK-CD34 negative cells in the bone marrow, and the total number of LSK-CD34 negative cells in the bone marrow were measured.
The bone-marrow cells collected from the mice (administered group, control group) 7 days after bone-marrow transplantation were measured for the plasminogen (Plg) mRNA expression level, tPA mRNA expression level, and PAI-1 mRNA expression level.
Bone marrow was collected from the mice (administered group and control group) 13 weeks after bone-marrow transplantation, and the following was measured: the total number of whole bone marrow (FIG. 7A), the proportion (%) of LSK-CD34 negative cells in the whole bone marrow (FIG. 7B), the total number of CD34(−)KSL cells in the whole bone marrow (FIG. 7C), the proportion (%) of Lin-SLAM cells in the whole bone marrow (FIG. 7D), the total number of Lin-SLAM cells in the whole bone marrow (FIG. 7E), the proportion (%) of bone marrow differentiated cells (CD45.1/Mac1/Gr1 cell) in the whole bone marrow (FIG. 7F), the total number of bone marrow differentiated cells (CD45.1/Mac1/Gr1 cell) in the whole bone marrow (FIG. 7G), the proportion (%) of B-cell lymphoid differentiated cells (CD45.1/B 220 cell) in the whole bone marrow (FIG. 7H), and the total number of B cell lymphoid differentiated cells (CD45.1/B 220 cell) in the whole bone marrow (FIG. 7I). The results are shown in the above-stated figures.

[4] = 100 mg/kg oral gavage, 5 consecutive days, days 2, 7, 21 after bone-marrow transplantation, versus vehicle control
[5] = 100 mg/kg oral, 7 days after bone-marrow transplantation

SMILES | survival rate on day 40 ([1]; imatinib 150 mg/kg/day + compound c 10 mg/kg/day via gavage, day 8 to day 14) | median survival period ([1]; imatinib 150 mg/kg/day + compound c 10 mg/kg/day, placebo 15.5 days) | LSK-CD34 negative cells (frequency and absolute number) [2] | frequency and absolute number of Lin-SLAM cells [2] | number of bone-marrow mononucleic cells ([2]; compared with control group) | cKitL level in plasma [3, 4] | plg level in plasma [3, 4] | tPA level in plasma [3, 4] | total MMP-9 level in plasma [3, 4] | white blood cell count in the peripheral blood [3, 4] | survival rate of the mice after bone-marrow transplantation ([3]; 100 mg/kg oral, concurrently with transplantation and 5 consecutive days, versus control group) | whole bone marrow cell number; proportion and total number of LSK-CD34 negative cells, Lin-SLAM cells, bone marrow differentiated cells, B-cell lymphoid differentiated cells ([3]; 100 mg/kg oral, 13 weeks after bone-marrow transplantation, versus vehicle control) | frequency of hematopoietic stem cells (Lin-SLAM cells, LSK-CD34 negative cells in bone marrow) [3, 5] | mRNA expression of plasminogen, tissue-type plasminogen activator, and plasminogen activator inhibitor 1 in bone marrow [3, 5]
O=C(Nc1ccc(Cl)cc1C(=O)O)c1cccc(-c2ccccc2)c1 [Example 4, 2-[(biphenyl-3-ylcarbonyl)amino]-5-chlorobenzoic acid] | 70% | 40 days | – | – | – | – | – | – | – | – | – | – | – | –
O=C(COCC(=O)N1CCN(C(c2ccccc2)c2ccccc2)CC1)Nc1ccc(Cl)cc1C(=O)[O-].[Na+] [Example 30 (compound group 2), 2-(2-(2-(4-benzhydrylpiperazin-1-yl)-2-oxoethoxy)acetamido)-5-chlorobenzoic acid sodium salt] | – | – | markedly increased | markedly increased | significantly increased | significantly higher | significantly higher | significantly higher | significantly higher | significantly higher | significantly higher | significantly higher | increases | induces
